Molecular target: PAI-1 (Homo sapiens, UniProt P05121)
Experiment: PAI chromogenic substrate assay (first S2251 assay, tPA/plasminogen system)
Assay type: biochemical
Procedure: In this assay, a compound is incubated with PAI-1 prior to addition to the tPA assay system. Inhibition of PAI-1 results in the production of plasmin from plasminogen. In turn, plasmin cleaves the chromogenic substrate S2251 (Kabi Vitrum) producing pNA (p-nitroaniline) which is detected spectrophotometrically at 405 nm (K. Nilsson et al, Fibrinolysis (1987) 1, 163-168).
Compounds of formula (A) were tested in a PAI chromogenic substrate assay. In the first assay (K. Nilsson, Fibrinolysis (1987) 1, 163-168) each compound was incubated with PAI-1 prior to addition to the tPA assay system. […] In turn, the plasmin cleaved the chromogenic substrate S2251 (Kabi-Vitrum) producing pNA (p-nitroaniline) which was detected spectrophotometrically at 405 nm.

Chain of PAI-1 (P05121 24-402): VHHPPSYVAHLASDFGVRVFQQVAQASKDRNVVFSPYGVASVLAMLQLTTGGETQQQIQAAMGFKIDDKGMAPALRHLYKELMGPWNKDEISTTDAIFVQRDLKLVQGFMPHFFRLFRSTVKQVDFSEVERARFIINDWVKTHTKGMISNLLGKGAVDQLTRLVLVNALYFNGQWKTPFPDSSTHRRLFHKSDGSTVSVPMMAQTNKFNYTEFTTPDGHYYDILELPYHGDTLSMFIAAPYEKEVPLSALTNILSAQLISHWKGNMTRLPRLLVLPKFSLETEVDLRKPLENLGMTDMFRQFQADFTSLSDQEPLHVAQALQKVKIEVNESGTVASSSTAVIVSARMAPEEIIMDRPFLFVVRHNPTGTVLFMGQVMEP

| Inhibition of PAI-1 in the first S2251 chromogenic substrate assay (Concentration 12.5 μm) [%] | Inhibition of PAI-1 in the first S2251 chromogenic substrate assay (Concentration 25 μm) [%] | Inhibition of PAI-1 in the first S2251 chromogenic substrate assay (Concentration 50 μm) [%] | Inhibition of PAI-1 in the first S2251 chromogenic substrate assay (Concentration 100 μm) [%] | Inhibition of PAI-1 in the first S2251 chromogenic substrate assay (Concentration 6.25 μm) [%] | Structure (SMILES) | Inhibition of PAI-1 in the first S2251 chromogenic substrate assay (Concentration 7.5 μm) [%] | Inhibition of PAI-1 in the first S2251 chromogenic substrate assay (Concentration 15 μm) [%] | Inhibition of PAI-1 in the first S2251 chromogenic substrate assay (Concentration 30 μm) [%] | Inhibition of PAI-1 in the first S2251 chromogenic substrate assay (Concentration 60 μm) [%] |
| --- | --- | --- | --- | --- | --- | --- | --- | --- | --- |
| – | – | – | – | – | COc1ccc(/C=c2\[nH]c(=O)/c(=C/c3ccc(NC(C)=O)cc3)[nH]c2=O)cc1 [Compound 26, (3Z,6Z)-3-(4-Acetamidobenzylidene)-6-(4-methoxybenzylidene)-2,5-piperazinedione] | 42 | 73 | 71 | 57 |
| 0 | 73 | 24 | 0 | 0 | O=C(O)CCCCOc1ccc(/C=c2\[nH]c(=O)/c(=C/c3ccccc3)[nH]c2=O)cc1 [Compound 97, 5-[4-((3Z,6Z)-6-Benzylidene-2,5-dioxopiperazin-3-ylidene)methylphenoxy]pentanoic acid] | – | – | – | – |
| 1 | 11 | 43 | 65 | – | O=c1[nH]/c(=C\c2ccccc2Br)c(=O)[nH]/c1=C\c1ccccc1 [Compound 55, (3Z,6Z)-6-Benzylidene-3-(2-bromobenzylidene)-2,5-piperazinedione] | – | – | – | – |
| 1 | 1 | 2 | 51 | 1 | CC(=O)NCc1ccc(/C=c2\[nH]c(=O)/c(=C/c3ccccc3)[nH]c2=O)cc1 [Compound 44, (3Z,6Z)-3-(4-Acetamidomethylbenzylidene)-6-benzylidene-2,5-piperazinedione] | – | – | – | – |
| – | – | – | – | – | CC(=O)Oc1ccc(/C=c2\[nH]c(=O)/c(=C/c3ccccc3)[nH]c2=O)cc1 [Compound 23, (3Z,6Z)-3-(4-Acetoxybenzylidene)-6-benzylidene-2,5-piperazinedione] | 0 | 0 | 17 | 65 |
| 2 | 1 | 3 | 50 | – | COc1ccc(/C=c2\[nH]c(=O)/c(=C/c3ccc(OC)cc3OC)[nH]c2=O)cc1 [Compound 73, (3Z,6Z)-3-(2,4-Dimethoxybenzylidene)-6-(4-methoxybenzylidene)-2,5-piperazinedione] | – | – | – | – |
| 1 | 1 | 20 | 67 | 0 | Nc1ccccc1/C=c1\[nH]c(=O)/c(=C/c2ccccc2)[nH]c1=O [Compound 39, (3Z,6Z)-3-(2-Aminobenzylidene)-6-benzylidene-2,5-piperazinedione] | – | – | – | – |
| 0 | 2 | 35 | 79 | 0 | O=c1[nH]/c(=C\c2c(Cl)cccc2Cl)c(=O)[nH]/c1=C\c1ccccc1 [Compound 21, (3Z,6Z)-6-Benzylidene-3-(2,6-dichlorobenzylidene)-2,5-piperazinedione] | – | – | – | – |
| 14 | 38 | 42 | 39 | – | COc1ccc(/C=c2\[nH]c(=O)/c(=C/c3ccc(S(C)(=O)=O)cc3)[nH]c2=O)cc1 [Compound 46, (3Z,6Z)-3-(4-Methoxybenzylidene)-6-(4-methylsulfonylbenzylidene)-2,5-piperazinedione] | – | – | – | – |
| 8 | 32 | 45 | 51 | 3 | COc1ccc(/C=c2\[nH]c(=O)/c(=C/c3ccc(N(C)C(C)=O)cc3)[nH]c2=O)cc1 [Compound 41, (3Z,6Z)-3-(4-Methoxybenzylidene)-6-(4-N-methylacetamidobenzylidene)-2,5-piperazinedione] | – | – | – | – |
| 5 | 38 | 61 | 79 | – | CC(C)(C)c1ccc(/C=c2\[nH]c(=O)/c(=C/c3ccccc3)[nH]c2=O)cc1 [Compound 51, (3Z,6Z)-6-Benzylidene-3-(4-tert-butylbenzylidene)-2,5-piperazinedione] | – | – | – | – |
| 61 | 80 | 66 | 33 | 1 | CC(=O)Nc1ccc(/C=c2\[nH]c(=O)/c(=C/c3ccc(F)cc3F)[nH]c2=O)cc1 [Compound 77] | – | – | – | – |
| 12 | 38 | 44 | 86 | 17 | COc1ccc(/C=c2\[nH]c(=O)/c(=C/c3ccc(NC(C)=O)cc3)[nH]c2=O)cc1OC [Compound 92] | – | – | – | – |
| 0 | 3 | 72 | 50 | 0 | COc1ccc(/C=c2\[nH]c(=O)/c(=C/c3ccc(OC)c(OC)c3)[nH]c2=O)cc1 [Compound 91, (3Z,6Z)-3-(3,4-Dimethoxybenzylidene)-6-(4-methoxybenzylidene)-2,5-piperazinedione] | – | – | – | – |
| 16 | 45 | 71 | 69 | 10 | CCOC(=O)CCCCC(=O)NCc1ccc(/C=c2\[nH]c(=O)/c(=C/c3ccccc3)[nH]c2=O)cc1 [Compound 95] | – | – | – | – |
| 1 | 8 | 47 | 60 | – | COc1ccc(/C=c2\[nH]c(=O)/c(=C/c3ccc(OC(C)C)cc3)[nH]c2=O)cc1 [Compound 49, (3Z,6Z)-3-(4-isopropoxybenzylidene)-6-(4-methoxybenzylidene)-2,5-piperazinedione] | – | – | – | – |

| Structure (SMILES) | Inhibition of PAI-1 in the first S2251 chromogenic substrate assay (Concentration 12.5 μm) [%] | Inhibition of PAI-1 in the first S2251 chromogenic substrate assay (Concentration 25 μm) [%] | Inhibition of PAI-1 in the first S2251 chromogenic substrate assay (Concentration 50 μm) [%] | Inhibition of PAI-1 in the first S2251 chromogenic substrate assay (Concentration 100 μm) [%] | Inhibition of PAI-1 in the first S2251 chromogenic substrate assay (Concentration 6.25 μm) [%] | Inhibition of PAI-1 in the first S2251 chromogenic substrate assay (Concentration 7.5 μm) [%] | Inhibition of PAI-1 in the first S2251 chromogenic substrate assay (Concentration 15 μm) [%] | Inhibition of PAI-1 in the first S2251 chromogenic substrate assay (Concentration 30 μm) [%] | Inhibition of PAI-1 in the first S2251 chromogenic substrate assay (Concentration 60 μm) [%] |
| --- | --- | --- | --- | --- | --- | --- | --- | --- | --- |
| CC(=O)Nc1ccc(/C=c2\[nH]c(=O)/c(=C/c3ccc(OC(=O)C(C)(C)C)cc3)[nH]c2=O)cc1 [Compound 82, (3Z,6Z)-3-(4-Acetamidobenzylidene)-6-(4-trimethylacetoxybenzylidene)-2,5-piperazinedione] | 1 | 1 | 3 | 80 | – | – | – | – | – |
| CC(=O)SCc1cccc(/C=c2\[nH]c(=O)/c(=C/c3ccccc3)[nH]c2=O)c1 [Compound 61, (3Z,6Z)-6-Benzylidene-3-(3-thioacetoxymethylbenzylidene)-2,5-piperazinedione] | 26 | 69 | 88 | 83 | – | – | – | – | – |
| CCCCOc1ccc(/C=c2\[nH]c(=O)/c(=C/c3ccc(OC)cc3)[nH]c2=O)cc1 [Compound 47, (3Z,6Z)-3-(4-Butoxybenzylidene)-6-(4-methoxybenzylidene)-2,5-piperazinedione] | 14 | 14 | 58 | 75 | – | – | – | – | – |
| COc1ccc(/C=c2\[nH]c(=O)/c(=C/c3ccc(NC(=O)COC(C)=O)cc3)[nH]c2=O)cc1 [Compound 87, (3Z,6Z)-3-(4-Acetoxyacetylaminobenzylidene)-6-(4-methoxybenzylidene)-2,5-piperazinedione] | 28 | 70 | 81 | 78 | 0 | – | – | – | – |
| COc1ccc(/C=c2\[nH]c(=O)/c(=C/c3ccc(OC(=O)C(C)(C)C)cc3)[nH]c2=O)cc1 [Compound 81, (3Z,6Z)-3-(4-Methoxybenzylidene)-6-(4-trimethylacetoxybenzylidene)-2,5-piperazinedione] | 0 | 1 | 1 | 64 | – | – | – | – | – |
| O=c1[nH]/c(=C\c2cccc([N+](=O)[O-])c2)c(=O)[nH]/c1=C\c1cccc([N+](=O)[O-])c1 [Compound 35, (3Z,6Z)-3,6-Di-(3-Nitrobenzylidene)-2,5-piperazinedione] | – | 2 | 28 | 52 | – | – | – | – | – |

Reference: US5700804A, “Pharmaceutical compounds” (Xenova Limited, priority 1992, dated 1997)
